Source: ChEMBL document CHEMBL5528054, “Novel Cocrystal Structures of Peptide Antagonists Bound to the Human Melanocortin Receptor 4 Unveil Unexplored Grounds for Structure-Based Drug Design” (J Med Chem, 2024)
The source made the active and inactive calls. The rule behind the calls is not given here.

Experiments:
[1] = biological target: Melanocortin receptor 3 (Homo sapiens, UniProt P41968); assay: Antagonist activity at C-terminal HA-tagged human MC3-R stably expressed in HEK293 cells co-expressing GScAMP22P cAMP reporter assessed as inhibition of alpha-MSH induced cAMP production by cell based luminescence assay; type: functional
[2] = system: HEK293; assay: (§1) Selectivity ratio of IC50 for C-terminal HA-tagged human MC1-R stably expressed in HEK293 cells co-expressing GScAMP22P cAMP reporter assessed as inhibition of alpha-MSH induced cAMP production to IC50 for C-terminal HA-tagged human MC4-R stably expressed in HEK293 cells co-expressing GScAMP22P cAMP reporter assessed as inhibition of alpha-MSH induced cAMP production; type: cell-based
[3] = system: HEK293; assay: Selectivity ratio of IC50 for C-terminal HA-tagged human MC4-R stably expressed in HEK293 cells co-expressing GScAMP22P cAMP reporter assessed as inhibition of alpha-MSH induced cAMP production to IC50 for C-terminal HA-tagged human MC1-R stably expressed in HEK293 cells co-expressing GScAMP22P cAMP reporter assessed as inhibition of alpha-MSH induced cAMP production; type: cell-based
[4] = system: HEK293; assay: as §1, with “MC4-R” for “MC1-R”, “MC3-R” for “MC4-R”; type: cell-based
[5] = biological target: T1, Melanocyte-stimulating hormone receptor (Homo sapiens, UniProt Q01726); assay: Partial agonist activity at C-terminal HA-tagged human MC1-R stably expressed in HEK293 cells co-expressing GScAMP22P cAMP reporter assessed as inhibition of alpha-MSH induced cAMP production by cell based luminescence assay; type: functional
Target sequence in this assay (Q01726 whole entry): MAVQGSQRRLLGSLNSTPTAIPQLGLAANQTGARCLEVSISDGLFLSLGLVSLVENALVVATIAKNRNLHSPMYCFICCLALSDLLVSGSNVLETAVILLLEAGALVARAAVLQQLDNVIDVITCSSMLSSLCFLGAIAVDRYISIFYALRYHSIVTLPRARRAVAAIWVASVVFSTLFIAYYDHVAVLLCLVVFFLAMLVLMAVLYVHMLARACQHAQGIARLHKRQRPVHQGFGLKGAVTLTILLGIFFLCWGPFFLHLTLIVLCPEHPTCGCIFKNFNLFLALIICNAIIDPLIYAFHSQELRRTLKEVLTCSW

[6] = biological target: T1, Melanocyte-stimulating hormone receptor; assay: Partial agonist activity at C-terminal HA-tagged human MC1-R stably expressed in HEK293 cells co-expressing GScAMP22P cAMP reporter assessed as inhibition of alpha-MSH induced cAMP production by cell based luminescence assay relative to control; type: functional; design: concentration or dose not given beside the values; conditions: filed as partial agonist, concentration not given here
Target sequence in this assay (Q01726 whole entry, looked up): as the sequence (Q01726 whole entry) above

[7] = biological target: T2, Melanocortin receptor 4 (Homo sapiens, UniProt P32245); assay: Antagonist activity at C-terminal HA-tagged human MC4-R stably expressed in HEK293 cells co-expressing GScAMP22P cAMP reporter assessed as inhibition of alpha-MSH induced cAMP production by cell based luminescence assay; type: functional
[8] = system: T-REx-293; assay: Inhibition of Kir7.1 […] mutant (unknown origin) expressed in human T-REx-293 cells co-expressing human MC4-R assessed as decrease in K+ conductance at 10 uM incubated for 24 hrs by high-throughput automated patch clamp analysis; type: cell-based
[9] = system: Mus musculus; assay: In vivo activation of Kir7.1 channel in cannulated C57BL/6J mouse assessed as increase in food intake at 500 pM,ICV administration for 7 days; type: functional; conditions: time 7.0 day
[10] = system: Mus musculus; assay: In vivo activation of Kir7.1 channel in cannulated C57BL/6J mouse assessed as increase in food intake at 500 pM,ICV administration and measured after 6 hrs; type: functional
[11] = system: Mus musculus; assay: In vivo activation of Kir7.1 channel in cannulated C57BL/6J mouse assessed as increase in food intake at 500 pM,ICV administration and measured upto 24 hrs; type: functional
[12] = system: Mus musculus; assay: In vivo activation of Kir7.1 channel in cannulated C57BL/6J mouse assessed as increase in food intake at 500 pM,ICV administration and measured after 4 hrs; type: functional
[13] = system: HEK293; assay: Selectivity ratio of EC50 for agonist activity at N-terminal FLAG tagged MC4-R (unknown origin) transiently transfected in HEK293 cells to EC50 for agonist activity at N-terminal FLAG tagged MC1-R (unknown origin) transiently transfected in HEK293 cells; type: cell-based
[14] = system: Melanocortin receptor 4 (Homo sapiens), P32245 [D122A]; assay: Agonist activity at N-terminal fused BRIL-Flag tagged human MC4-R D122A mutant transiently transfected in HEK293 cells assessed as fold change in cAMP accumulation by ELISA; type: functional, cell-based; conditions: filed as agonist
[15] = system: Melanocortin receptor 4 (Homo sapiens), P32245 [D126A]; assay: Agonist activity at N-terminal fused BRIL-Flag tagged human MC4-R D126A mutant transiently transfected in HEK293 cells assessed as fold change in cAMP accumulation by ELISA; type: cell-based; conditions: filed as agonist
[16] = system: Melanocortin receptor 4 (Homo sapiens), P32245 [E100A]; assay: Agonist activity at N-terminal fused BRIL-Flag tagged human MC4-R E100A mutant transiently transfected in HEK293 cells assessed as fold change in cAMP accumulation by ELISA; type: cell-based; conditions: filed as agonist
[17] = biological target: T2, Melanocortin receptor 4; conditions: HEK293, filed as antagonist, time 1.0 hrs

Sequence of Melanocortin receptor 3 (P41968 whole entry): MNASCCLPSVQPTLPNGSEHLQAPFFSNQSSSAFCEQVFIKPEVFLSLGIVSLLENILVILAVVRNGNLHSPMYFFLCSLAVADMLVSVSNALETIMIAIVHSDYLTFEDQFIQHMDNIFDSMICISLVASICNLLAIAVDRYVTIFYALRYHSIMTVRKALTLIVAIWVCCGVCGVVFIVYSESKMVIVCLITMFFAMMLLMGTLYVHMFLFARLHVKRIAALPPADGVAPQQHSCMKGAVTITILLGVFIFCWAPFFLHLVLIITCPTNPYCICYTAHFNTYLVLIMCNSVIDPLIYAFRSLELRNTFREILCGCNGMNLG
T2 sequence (P32245 whole entry): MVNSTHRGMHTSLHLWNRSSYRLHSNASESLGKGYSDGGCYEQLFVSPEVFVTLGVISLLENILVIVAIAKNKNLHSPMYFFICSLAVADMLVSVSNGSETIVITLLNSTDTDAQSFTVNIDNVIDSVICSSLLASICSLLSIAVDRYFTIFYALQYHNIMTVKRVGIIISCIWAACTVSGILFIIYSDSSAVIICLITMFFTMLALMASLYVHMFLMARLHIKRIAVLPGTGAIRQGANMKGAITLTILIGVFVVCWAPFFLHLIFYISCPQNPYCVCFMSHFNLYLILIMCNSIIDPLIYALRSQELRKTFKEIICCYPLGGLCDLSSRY
Sequence of Melanocortin receptor 4 (Homo sapiens), P32245 [D122A] (P32245 whole entry D122A, the tested form may be a part): as the sequence (P32245 whole entry) above, with D122A counted along it
Sequence of Melanocortin receptor 4 (Homo sapiens), P32245 [D126A] (P32245 whole entry D126A, the tested form may be a part): as the sequence (P32245 whole entry) above, with D126A counted along it
Sequence of Melanocortin receptor 4 (Homo sapiens), P32245 [E100A] (P32245 whole entry E100A, the tested form may be a part): as the sequence (P32245 whole entry) above, with E100A counted along it

IC50 ([1]; read-out: IC50) | IC50 [5] | inhibition [6] | IC50 ([7]; read-out: IC50) | SMILES | Ratio IC50 [3] | Ratio IC50 [4] | further results
 | 299 nM | 86.8% |  | CCCC[C@H](NC(C)=O)C(=O)N[C@H]1CC(=O)NCCCC[C@@H](C(N)=O)NC(=O)[C@H](CCCNC(=N)N)NC(=O)[C@H](Cc2c[nH]c3ccccc23)NC(=O)[C@H](CCCNC(=N)N)NC(=O)[C@@H](Cc2ccc3ccccc3c2)NC(=O)[C@@H]2CCCN2C1=O |  |  | inhibition [8]: Active
26.4 nM | 53.6 nM | 84.7% | 5.41 nM | CCCC[C@H](NC(C)=O)C(=O)N[C@H]1CC(=O)NCCCC[C@@H](C(N)=O)NC(=O)CNC(=O)[C@H](Cc2c[nH]c3ccccc23)NC(=O)[C@H](CCCNC(=N)N)NC(=O)[C@@H](Cc2ccc3ccccc3c2)NC(=O)[C@@H]2C[C@H](n3cc(-c4ccccc4)nn3)CN2C1=O | 9.9 | 4.9 | 
8.96 nM | 0.25 nM | 85.1% | 2.97 nM | CCCC[C@H](NC(C)=O)C(=O)N[C@H]1CC(=O)NCCCC[C@@H](C(N)=O)NC(=O)CNC(=O)[C@H](Cc2c[nH]c3ccccc23)NC(=O)[C@H](CCCNC(=N)N)NC(=O)[C@@H](Cc2ccc3ccccc3c2)NC(=O)[C@@H]2C[C@H](NC(=O)[C@@H](N)CCCN)CN2C1=O | 0.1 | 3 | Ratio IC50 [2]: 12
130 nM | 389 nM | 86.4% | 18.8 nM | CCCC[C@H](NC(C)=O)C(=O)N[C@H]1CC(=O)NCCCC[C@@H](C(N)=O)NC(=O)CNC(=O)[C@H](Cc2c[nH]c3ccccc23)NC(=O)[C@H](CCCNC(=N)N)NC(=O)[C@@H](Cc2ccc3ccccc3c2)NC(=O)[C@@H]2C[C@H](n3cc(CCC(=O)O)nn3)CN2C1=O | 20.8 | 6.9 | 
5.08 nM | 12 nM | 89.2% |  | CCCC[C@H](NC(C)=O)C(=O)N[C@H]1CC(=O)NCCCC[C@@H](C(N)=O)NC(=O)CNC(=O)[C@H](Cc2c[nH]c3ccccc23)NC(=O)[C@H](CCCN=C(N)N)NC(=O)[C@@H](Cc2ccc3ccccc3c2)NC(=O)[C@@H]2CCCN2C1=O |  |  | IC50 ([1]; read-out: pIC50 (converted)): 5.5 nM; inhibition [8]: Active
59.5 nM | 68.9 nM | 83.5% | 9.92 nM | CCCCCCc1cn([C@H]2C[C@H]3C(=O)N[C@H](Cc4ccc5ccccc5c4)C(=O)N[C@@H](CCCNC(=N)N)C(=O)N[C@@H](Cc4c[nH]c5ccccc45)C(=O)NCC(=O)N[C@H](C(N)=O)CCCCNC(=O)C[C@H](NC(=O)[C@H](CCCC)NC(C)=O)C(=O)N3C2)nn1 | 7 | 6 | 
9.3 nM | 10.5 nM | 93.7% | 6.9 nM | CCCC[C@H](NC(C)=O)C(=O)N[C@H]1CC(=O)NCCCC[C@@H](C(N)=O)NC(=O)CNC(=O)[C@H](Cc2c[nH]c3ccccc23)NC(=O)[C@H](CCCNC(=N)N)NC(=O)[C@@H](Cc2ccc3ccccc3c2)NC(=O)[C@@H]2C[C@H](NC(=O)CC3CCCCC3)CN2C1=O | 1.8 | 1.6 | IC50 ([7]; read-out: pIC50 (converted)): 5.89 nM

The remaining lines, values behind:

SMILES | IC50 ([1]; read-out: IC50) | IC50 [5] | inhibition [6] | IC50 ([7]; read-out: IC50) | Ratio IC50 [3] | Ratio IC50 [4] | further results
CCCC[C@H](NC(C)=O)C(=O)N[C@H]1CC(=O)NCCCC[C@@H](C(N)=O)NC(=O)CNC(=O)[C@H](Cc2c[nH]c3ccccc23)NC(=O)[C@H](CCCNC(=N)N)NC(=O)[C@@H](Cc2ccc3ccccc3c2)NC(=O)[C@@H]2C[C@H](NC(=O)[C@@H](N)CCC(=O)O)CN2C1=O | 5.64 nM | 0.2 nM | 80.7% | 2.83 nM | 0.1 | 2 | Ratio IC50 [2]: 14
CCCC[C@H](NC(C)=O)C(=O)N[C@H]1CC(=O)NCCCC[C@@H](C(N)=O)NC(=O)CNC(=O)[C@H](Cc2c[nH]c3ccccc23)NC(=O)[C@H](CCCNC(=N)N)NC(=O)[C@@H](Cc2ccc3ccccc3c2)NC(=O)[C@@H]2C[C@@H](n3cc(CCCNC(=N)N)nn3)CN2C1=O |  |  |  |  |  |  | IC50 ([1]; hek293, read-out: IC50): 18.8 nM; IC50 ([5]; hek293): 0.49 nM; IC50 ([7]; hek293, read-out: IC50): 3.26 nM
CCCCC(NC(C)=O)C(=O)N[C@H]1CC(=O)NCCCC[C@@H](C(N)=O)NC(=O)CNC(=O)[C@H](Cc2c[nH]c3ccccc23)NC(=O)[C@H](CCCNC(=N)N)NC(=O)[C@@H](Cc2ccc3ccccc3c2)NC(=O)[C@@H]2C[C@@H](n3cc(-c4ccccn4)nn3)CN2C1=O (some centres undefined) |  |  | 88.4% |  | 53 | 1.6 | 
CCCC[C@H](NC(C)=O)C(=O)N[C@H]1CC(=O)NCCCC[C@@H](C(N)=O)NC(=O)CNC(=O)[C@H](Cc2c[nH]c3ccccc23)NC(=O)[C@H](CCCNC(=N)N)NC(=O)[C@@H](Cc2ccc3ccccc3c2)NC(=O)[C@@H]2C[C@@H](n3cc(-c4ccccn4)nn3)CN2C1=O |  |  |  |  |  |  | IC50 ([1]; hek293, read-out: IC50): 6.35 nM; IC50 ([5]; hek293): 213 nM; IC50 ([7]; hek293, read-out: IC50): 4.01 nM
CCCCC(NC(C)=O)C(=O)N[C@H]1CC(=O)NCCCC[C@@H](C(N)=O)NC(=O)CNC(=O)[C@H](Cc2c[nH]c3ccccc23)NC(=O)[C@H](CCCNC(=N)N)NC(=O)[C@@H](Cc2ccc3ccccc3c2)NC(=O)[C@@H]2C[C@@H](n3cc(C(C)(C)N)nn3)CN2C1=O (some centres undefined) |  |  | 86.7% |  | 0.4 | 16.7 | Activity [9]: Active; Activity [10]: Active
CCCCC(NC(C)=O)C(=O)N[C@H]1CC(=O)NCCCC[C@@H](C(N)=O)NC(=O)CNC(=O)[C@H](Cc2c[nH]c3ccccc23)NC(=O)[C@H](CCCNC(=N)N)NC(=O)[C@@H](Cc2ccc3ccccc3c2)NC(=O)[C@@H]2C[C@@H](n3cc(CCCNC(=N)N)nn3)CN2C1=O (some centres undefined) |  |  | 84.7% |  | 0.1 | 5.8 | 
CCCC[C@H](NC(C)=O)C(=O)N[C@H]1CC(=O)NCCCC[C@@H](C(N)=O)NC(=O)CNC(=O)[C@H](Cc2c[nH]c3ccccc23)NC(=O)[C@H](CCCNC(=N)N)NC(=O)[C@@H](Cc2ccc3ccccc3c2)NC(=O)[C@@H]2C[C@H](n3cc(-c4ccccn4)nn3)CN2C1=O | 31.5 nM | 204 nM | 87.2% | 6.78 nM | 30.1 | 4.5 | 
CCCC[C@H](NC(C)=O)C(=O)N[C@H]1CC(=O)NCCCC[C@@H](C(N)=O)NC(=O)CNC(=O)[C@H](Cc2c[nH]c3ccccc23)NC(=O)[C@H](CCCNC(=N)N)NC(=O)[C@@H](Cc2ccc3ccccc3c2)NC(=O)[C@@H]2C[C@H](n3cc(C(C)(C)N)nn3)CN2C1=O | 34.3 nM | 2.53 nM | 83.8% | 5.01 nM | 0.5 | 6.8 | Activity [11]: inactive; Activity [12]: inactive
CCCC[C@H](NC(C)=O)C(=O)N[C@H]1CC(=O)NCCCC[C@@H](C(N)=O)NC(=O)CNC(=O)[C@H](Cc2c[nH]c3ccccc23)NC(=O)[C@H](CCCNC(=N)N)NC(=O)[C@@H](Cc2ccc3ccccc3c2)NC(=O)[C@@H]2C[C@H](n3cc(CCN)nn3)CN2C1=O | 42.5 nM | 1.71 nM | 85.5% | 4.48 nM | 0.4 | 9.5 | 
CC(=O)N[C@@H](CCCNC(=N)N)C(=O)N[C@H]1CSSC[C@@H](C(N)=O)NC(=O)[C@H](Cc2c[nH]c3ccccc23)NC(=O)[C@H](CCCNC(=N)N)NC(=O)[C@@H](Cc2ccccc2)NC(=O)[C@H](Cc2c[nH]cn2)NC(=O)[C@@H](C)NC1=O |  |  |  |  |  |  | Ratio EC50 [13]: 20; fold change (FC) [14]: 2; fold change (FC) [15]: 205; fold change (FC) [16]: 2
CCCC[C@H](NC(C)=O)C(=O)N[C@H]1CC(=O)NCCCC[C@@H](C(N)=O)NC(=O)[C@@H](Cc2ccccc2)NC(=O)[C@H](CCCN=C(N)N)NC(=O)[C@@H](Cc2ccc3ccccc3c2)NC(=O)[C@@H]2CCCN2C1=O |  |  |  |  |  |  | Tm [17]: 62.6 °C
